The values that follow come from US20100204244A1, “AGENTS FOR TREATMENT OF DIABETIC RETINOPATHY AND DRUSEN FORMATION IN MACULAR DEGENERATION” (ALCON INC., priority 2003, published 2010).

Series [1] concerns Bovine retinal endothelial cells (BRECs). In words: In vitro oxidant stress assay (MTS viable cell assay) in retinal endothelial cells exposed to t-butyl hydroperoxide. In kind it is cell-based. Here is the method:
The present example provides a study wherein cultured retinal endothelial cells were exposed to an oxidant stress to evaluate the protective effects of pretreatment with quercetin. In addition, the present example provides an assay system for screening compounds for therapeutic activity in nonproliferative diabetic retinopathy.
Bovine retinal endothelial cells (BRECs) (VEC Technologies, Rensselaer, N.Y.) were grown on fibronectin ([…])-coated plasticware at 37° C. in 5% CO2 in MCDB-131 Complete media (VEC Technologies, Rensselaer, N.Y.). For serum-free media (SFM) conditions, MCDB-131 was used supplemented at 5 ml/500 ml with 100× antibiotic/antimycotic, 10 mM L-glutamine, and 0.1% BSA (all from Life Technologies Inc., Grand Island, N.Y.).
The BRECs were seeded at 10,000 cells/well and allowed to attach and grow for three days in 0.2 ml/well in complete media (10% fetal bovine serum (FBS)). The complete media was replaced with SFM for the next twenty-four hours at which time 25 μM quercetin, 100 μM DL-buthionine-(S,R)-sulfoximine (BSO, Sigma, St. Louis, Mo.), and the 0.1% DMSO were added. The next day all media was replaced with SFM (0.1 ml/well) containing 0-500 μM t-butyl hydroperoxide (ICN Biomedicals, Irvine, Calif.). After four hours incubation at 37° C. in 5% CO2 the assay was started by adding 20 μl of a mixture of twenty parts MTS (3-(4,5-dimethythiazol-2-yl)-5-(3-carboxymethoxyphenyl)-2-(4-sulfophenyl)-2H-tetrazolium, inner salt) and one part PMS (phenazine methosulfate) from the Promega ClelTiter 96® AQueous Non-Radioactive Cell Proliferation Assay kit (Promega Corporation, Madison, Wis.). The plates were returned to the incubator for three hours and then net absorbances at 490 nm, obtained by subtraction of a blank mean, were recorded and used as a measure of levels of viable cells.
Using six wells per condition, the assay was carried out three times. The absorbance values were normalized such that the control wells without t-butyl hydroperoxide equaled 100%, and data from the three assays were pooled. An overall statistical difference was found among treatment groups (see FIGURE; ANOVA, P<0.05).
(Tetrazolium assays rely on reduction of a dye to a coloured formazan, in cell work by metabolically active cells.)

The test system of series [2] is experimentally induced diabetic rats. The conditions noted are these: oral administration; cited from earlier work.
The subject of the next series is cultured human RPE cells. The note with it: cited from earlier work.
Series [3] deals with γ-glutamylcysteine synthetase. The conditions noted are these: cited from earlier work.
Series [4] has as its system phase II detoxification enzyme. The conditions noted are these: human retinal pigment epithelial cells; cited from earlier work.
Series [5] relates to quinone reductase, glutathione-S-transferase, and glutathione reductase. The conditions noted are these: various cell lines including human adult retinal pigment epithelial cells; cited from earlier work.

In the case of `CCCCS(=N)(=O)CCC(N)C(=O)O` (racemic) [BS, DL-buthionine-(S,R)-sulfoximine], the cell survival entry in series [1] (100 μM BSO pretreatment alone, no t-butyl hydroperoxide) was “no effect on cell survival”. Further, the “effect on toxicity of t-butyl hydroperoxide” value in series [1] (100 μM BSO pretreatment, all t-butyl hydroperoxide concentrations) is “significantly enhanced the toxicity”.
In the case of `O=c1c(-c2ccc(O)cc2)coc2cc(O)cc(O)c12` [genistein], in series [2], the retinal vascular leakage result is given as “reduces retinal vascular leakage”.
With `Cc1c(-c2cnccn2)ssc1=S` [oltipraz], the “protection from chemical oxidants” value with cultured human RPE cells is “Protection of cultured human RPE cells from chemical oxidants”.
As to `O=c1c(O)c(-c2ccc(O)c(O)c2)oc2cc(O)cc(O)c12` [quercetin], in series [1] (25 μM quercetin pretreatment, then 0-500 μM t-butyl hydroperoxide 4 h, versus control group at each t-butyl hydroperoxide concentration), the “numbers of viable cells (net absorbance at 490 nm, normalized to control without t-butyl hydroperoxide = 100%)” value is “higher numbers of viable cells than in the control group”. In addition, in series [3], the glutathione levels entry was “increase glutathione levels”.
In the case of `C[S+]([O-])CCCCN=C=S` (stereo not shown) [sulforaphane], in series [4], the “induction of a phase II detoxification enzyme” value is recorded as “induction of a phase II detoxification enzyme”. Also, in the series with cultured human RPE cells, the “protection from chemical oxidants” value is listed as “Protection of cultured human RPE cells from chemical oxidants”. In addition, in series [5], the enzyme induction entry was “induce quinone reductase, glutathione-S-transferase, and glutathione reductase”.
In the case of `CC(C)(C)OO` [t-butyl hydroperoxide], the cell survival result in series [1] (t-butyl hydroperoxide exposure 4 h, all concentrations up to 500 μM) was “significant reductions in cell survival”.
